What all share (format): cell-based
One assay concerns Phytophthora capsici. The assay can be described thus: Mycelial growth from inoculum plugs in amended basal nutrient solution. The following applies: 48 hours. As for the experimental part: (§1) The efficacy of the garlic extract was tested against […] soil-borne fungi that cause root and lower stem rots of plants. The fungal pathogens included: Pythium aphanidermatum, Pythium irregular, Pythium ultimum, Phytophthora capsici, Phytophthora cinnamomi, Phytophthora nicotiana, Rhizoctonia solani, Fusarium oxysporum f.sp. lycopersici, Fusarium oxysporum f.sp. spinaciae, and Thielaviopsis basicola. All isolates used in this investigation were known to be pathogenic to various cultivated plant species.
(§2) All isolates of Pythium aphanidermatum, Pythium irregular, Pythum ultimum, Phytophthora capsici, Phytophthora cinnamomi, Phytophthora nicotiana, Rhizoctonia solani, Fusarium oxysporum f.sp. lycopersici, Fusarium oxysporum f.sp. spinaciae were grown on standard corn meal agar (CMA) for 8 to 9 days. Plugs from inoculum plates were taken using a #4 cork borer (5 mm diameter). Inoculum plugs were placed into 5-cm sterile plastic petri dishes containing 10 ml of a basal nutrient solution that consisted of 60% (v/v) clarified V-8 juice and sterile distilled water (SDW). Basal nutrient solutions were amended with the appropriate treatments. Treatments included SDW (non-treated control), a fungicidal agent appropriate to each species (metylaxyl for the Pythium and Phytophthora species, PCNB for Rhizoctonia, and Allegiance(r) for Fusarium), or 10%, 15%, 20%, 25%, or 30% (v/v) garlic extract. Cultures were placed into a growth chamber and maintained in the dark at 22(C(1(C. After 48 hours, mycelial growth (if any was visible) from culture plugs was measured.

A further assay deals with Phytophthora cinnamomi. The assay is described as above. As to conditions: 48 hours. As for the experimental part: as §1, §2
Another assay relates to Phytophthora nicotiana. Described as above. As to conditions: 48 hours. As for the experimental part:
as §1, §2

For a further assay, the system named is Pythium aphanidermatum. The description is as above. As to conditions: 48 hours. Here is the method:
as §1, §2

Another assay deals with Pythium irregular. Described as above. As to conditions: 48 hours. Here is the method: as §1, §2
In another assay the test system is Pythium ultimum. The assay is described as above. As to conditions: 48 hours. Here is the method: as §1, §2
The test system of assay [1] is Pythium and Phytophthora species. The assay can be described thus: Mycelial growth in amended basal nutrient solution. The following applies: basal nutrient solution amended with metalaxyl. As for the experimental part: as §1
as §2, with “Treatments included SDW (non-treated control), a fungicidal agent appropriate to each species (metylaxyl for the Pythium and Phytophthora species, PCNB for Rhizoctonia, and Allegiance(r) for Fusarium), or 10%, 15%, 20%, 25%, or 30% (v/v) garlic extract.” left out

The subject of a further assay is Rhizoctonia solani. The assay can be described thus: Mycelial growth from inoculum plugs in amended basal nutrient solution. The following applies: for Growth of Rhizoctonia on amended basal nutrient solution: PCNB. Here is the method: as §1, §2
[2] abbreviates: Fungicide control (Metylaxyl) in basal nutrient solution.
The mark [3] stands for this setting: Fungicide control (Metylaxyl), from edge of inoculum plug.

Marks after values point to notes of the source that are not given here.

Regarding `COCC(=O)N(c1c(C)cccc1C)C(C)C(=O)OC` (centres unmarked) [Metylaxyl], the “Plates with visible mycelial growth (%)” value in the assay with Phytophthora capsici (setting [2]), with Phytophthora cinnamomi (setting [2]), with Phytophthora nicotiana (setting [2]), in the assay with Pythium aphanidermatum (setting [2]), in the assay with Pythium irregular (setting [2]) and with Pythium ultimum (setting [2]) was 0% in each case. The “Measured growth (cm)” value in the assay on Phytophthora capsici (setting [3]), with Phytophthora cinnamomi (setting [3]), in the assay with Phytophthora nicotiana (setting [3]), in the assay with Pythium aphanidermatum (setting [3]), with Pythium irregular (setting [3]) and in the assay on Pythium ultimum (setting [3]) was 0 cm in each case. Besides, in assay [1], the “Pythium and Phytophthora species that grew from the inoculum plugs” value is on record as “none”.
`O=[N+]([O-])c1c(Cl)c(Cl)c(Cl)c(Cl)c1Cl` [PCNB]: in the assay with Rhizoctonia solani (Fungicide control (PCNB) in basal nutrient solution, 48 hours), the “Plates with visible mycelial growth (%)” value is 50^x %. The “Measured growth (cm)” value in the assay on Rhizoctonia solani (Fungicide control (PCNB), 48 hours, from edge of inoculum plug) is 0.3 cm. In addition, the “Growth of Rhizoctonia on amended basal nutrient solution” value in the assay with Rhizoctonia solani (first replication, inappropriate PCNB concentration) is reported as “limited amount of growth”; in the assay with Rhizoctonia solani (second replication), “did not grow”.

The values are drawn from patent US20050008715A1, “Method for preventing fungal growth in plants” (priority 2003, published 2005).
